Target: T1, NIT1 (NITRILASE1) (Arabidopsis thaliana, UniProt P32961)
T1 construct: recombinant, 6xHis-tagged, expressed in Escherichia coli, (NH4)2SO4 precipitation, Ni-NTA and PD-10 purified; tag cleavage not mentioned
T1 sequence (P32961 2-346): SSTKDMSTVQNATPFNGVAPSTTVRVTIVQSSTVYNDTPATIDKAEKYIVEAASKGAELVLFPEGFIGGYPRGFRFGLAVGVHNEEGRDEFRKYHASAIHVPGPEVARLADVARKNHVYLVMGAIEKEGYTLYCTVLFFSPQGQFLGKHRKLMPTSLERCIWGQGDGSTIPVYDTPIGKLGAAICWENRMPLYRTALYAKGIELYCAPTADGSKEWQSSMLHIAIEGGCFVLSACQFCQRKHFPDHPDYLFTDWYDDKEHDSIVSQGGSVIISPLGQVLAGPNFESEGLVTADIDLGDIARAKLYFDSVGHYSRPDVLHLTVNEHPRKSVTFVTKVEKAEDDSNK
Test: Berthelot colorimetric ammonia assay; IC50 by linear-regression interpolation
Format: biochemical

IC50: ~20.7 µM
Compound: CC(Nc1cccc2ccccc12)C(=O)NN=Cc1c(O)ccc2ccccc12 (stereo not shown) [D, N'‐[(2‐hydroxy‐1‐naphthyl)methylene]‐2‐(1‐naphthylamino)propanohydrazide]

Source: publication PMC8360157, “The chemical compound ‘Heatin’ stimulates hypocotyl elongation and interferes with the Arabidopsis NIT1‐subfamily of nitrilases” (The Plant Journal, 2021)
